Data set [1] concerns HDAC (HeLa nuclear extract). Nature of the data set: Fluorometric HDAC inhibition assay using the Fluor de Lys assay kit. Format: biochemical, human. The procedure: Histone deacetylase inhibition by compounds of the invention is assayed by a commercial fluorescent assay kit (BIOMOL—AK-500). 10 mM stock solutions of compounds of the invention prepared in DMSO are aliquoted and frozen at −20° C. For each assay, a vial of the drug solution is thawed to prepare dilutions of drug in DMSO; the remaining drug is discarded. Working solutions of the assay reagents are prepared according to the manufacturers instructions. For the assay, 10 μl of ×5 concentrations of drug (in triplicate) or HDAC assay buffer is added to 15 μl of dilute HeLa nuclear extract (BIOMOL; D1409) and 25 μl of (2×) Fluor-de-Lys substrate in a micro titre plate (Perkin Elmer # 6005270, Optiplate-96 Black microplate) and thoroughly mixed. […] The reactions are allowed to proceed for 10 min and then stopped by addition of 50 μl of dilute Fluor-de-Lys developer solution. The reaction mixtures are then incubated at room temperature for 15 min and fluorescence is read on a Victor multi-well Fluorescence plate reader at an excitation wavelength of 355 nm and emission wavelength of 460 nm.
To obtain a calibration curve, 50 μl aliquots of deacetylated standards prepared in HDAC assay buffer according to the manufacturer's instructions are mixed with 50 μl of diluted Fluor-de-Lys developer solution and incubated for 10 min at room temperature. The fluorescence is measured as above. A plot of arbitrary fluorescence units (AFU) against deacetylated standard concentration in μM is made. The slope and intercept are determined and used for conversion of inhibitor data AFU into velocity of reaction (V, μM/min). To obtain half-maximal inhibition (EC50), molar concentrations of drug are plotted against V and the EC50 is determined from the sigmoid dose response using the GraphPad Prism software.

The next data set has as its system MCF-7 cells. The data set can be described thus: Sulforhodamine B (SRB) cell growth inhibition assay. Format: cell-based, human. The following applies: N=5-6. The protocol: Stock cultures of MCF-7 and MDA-MB-231 human breast cancer cell lines (American Type Culture Collection, Rockville, Md.) are grown in Dulbecco's Modified Eagle's Medium (DMEM) containing 10% (v/v) foetal calf serum, 2 mM L-glutamine, 100 units/ml penicillin and 100 μg/ml streptomycin at 37° C. in 5% CO2 humidified atmosphere. Cells are counted in a haemocytometer after detachment using 0.25% (w/v) trypsin in Dulbecco's Phosphate Buffered Saline without Ca^2+ or Mg^2+ (DPBS) (Sigma-Aldrich, Gillingham, UK) containing 0.02% (w/v) EDTA. Viability is determined by Trypan blue exclusion. For each cell line, cells are seeded in 96-well microtitre plates at optimal densities determined in prior experiments to ensure exponential growth for the duration of the assay. […] After 48 hour incubation, cell proliferation is determined using the sulforhodamine B colorimetric assay described by Skehan et al. (1990) J. Natl. Cancer Inst. 82, 1107-1112. Briefly, 100 μl of ice cold 40% (w/v) trichloroacetic acid is added to each well and incubated for 1 hour at 4° C. The plate is then rinsed gently with five changes of tap water. To each well is then added 100 μl of 0.4% (w/v) sulforhodamine B in 1% (v/v) acetic acid and incubated for 1 hour at room temperature. The plate is then washed five times with 1% (v/v) acetic acid and allowed to air dry overnight. Bound dye is then solubilised by addition of 100 μl of 10 mM Tris base to each well followed by incubation on a vibrating plate shaker for 30 minutes. Absorbance at 492 nm is then measured on a microtitre plate reader and the results expressed as the mean ±SE for 6 replicates as a % of vehicle control (taken as 100%). The concentration of each compound of the invention that inhibits cell proliferation by 50% (IC50) is determined graphically in each case using non-linear regression analysis to fit inhibition data to the appropriate dose-response curve (GraphPad Prism Version 4.0; GraphPad Software Inc., San Diego, Calif.).
Trichostatin A (TSA) was used as control.

The test system of data set [2] is HDAC. The following applies: HPLC fractions tested in vitro; cited from earlier work.
For data set [3] the following is noted: cited from earlier work.
The subject of data set [4] is N-methyl-N-nitrosourea carcinogen-induced rat mammary cancer. Conditions: 500 μg/kg/day s.c. for 4 weeks; cited from earlier work.
For data set [5], the system named is HDAC. The following applies: background statement; cited from earlier work.
Data set [6] concerns MCF7 and MDA-MB-435 human mammary tumour xenografts. The data set can be described thus: Human mammary tumour xenografts in immunodeficient mice. The format is in vivo, mouse. Conditions: 20-40 mg/kg/day i.p. for 2 weeks. Background: A xenograft is tissue or cells of one species grown in another, often human tumour cells in immunodeficient mice.
A short description of data set [7]: Intraperitoneal pharmacokinetic studies in vivo. Details: species or system mouse. Conditions: for Number of UV metabolites: 80 mg/kg i.p. The procedure:
Parent compound and phase I metabolites were separated by HPLC and detected with simultaneous UV and positive ion electrospray mass spectrometry. Metabolites were identified by positive ion electrospray tandem mass spectrometry.
C1-A was introduced at 80 mg/kg in DMSO (0.0015 ml/g; 30 μl) intraperitoneally into the mouse.

Data set [8] is described as follows: Pharmacokinetic studies in vivo after intravenous injection. More on the design: species or system mouse. The following applies: 80 mg/kg i.v. The procedure: C1-A at 80 mg/kg in 10% DMSO, 5% Tween 20 and 85% saline was injected i.v. into the mouse. Plasma samples were deproteinated with two volume equivalents of methanol, then 200 μl was analysed by reversed-phase high pressure liquid chromatography (5 μm C18 column and 10 mM ammonium acetate/acetonitrile gradient) with ultraviolet detection at a wavelength of 351 nm. C1-A was detectable in plasma up to 60 min after i.v. injection.

For data set [9], the system named is HCT116 human colon cancer cells. Nature of the data set: Efficacy in vivo, HCT116 tumour-bearing mice. More on the design: species or system mouse. The following applies: 80 mg/ml i.p. daily for 7 days, n=1; for Efficacy in vivo (tumour volume vs vehicle control): HCT116 s.c. tumours. The procedure: The study was carried out at n=1 each for drug- or vehicle-treated mice. HCT116 human colon cancer cells were injected subcutaneously into the back of mice to form tumours.
When the tumours were about ˜125 mm^3, the mice were injected with C1-A at 80 mg/ml or vehicle (10% DMSO, 5% Tween 20 and 85% saline) intraperitoneally daily for 7 days. Tumour sizes were measured every 1-2 days in 3 orthogonal axes by callipers to determine tumour volume.

Data set [10] relates to Histone H4 acetylation, pRb and Cyclin D1 in MCF-7 cells. Nature of the data set: Western blots of acetyl-H4, pRb and cyclin D1. Format: cell-based, human. Conditions: MCF-7 cells treated 24 h; western blot (FIG. 13). The protocol:
MCF-7 cells were treated with drug or vehicle (equivalent concentration of DMSO in growth media) for 24 h. Cells were harvested and homogenised. The respective proteins (acetyl-H4, pRb and cyclin D1) in supernatants of these homogenates were visualised by western blot analysis as previously described (Leyton J. et al., Cancer Res. (2006) 66(15): 7621-9).
Background: In western blotting, separated proteins are transferred to a membrane and probed.

The mark [11] stands for this setting: first of two independent assay sets, N=3, read-out: Average EC50.
[12] abbreviates: second of two independent assay sets, N=3, read-out: Average EC50.
The mark [13] stands for this setting: MCF-7 cells, first of two independent assays.
The mark [14] stands for this setting: MCF-7 cells, second of two independent assays.

Where two headings read alike, the source gives them in different places. A value given as a limit tells only on which side of the number the result lay.

The term EC50 denotes the concentration giving half of the maximal effect. Consider `CCN(CC)c1ccc(S(=O)(=O)Nc2ccc(/C=C(C)/C=C/C(=O)NO)cc2)cc1` [Example C1-B, (E,E)-4-methyl-5-{4-[4-(diethylamino)phenyl]sulfonamido}penta-2,4-dienoic acid N-hydroxyamide], for which the concentration giving a half-maximal response (EC50) came to 320 nM in data set [1] (setting [11]); 450 nM in data set [1] (setting [12]); 6000 nM in the data set with MCF-7 cells (Homo sapiens, MCF7, MCF-7 cells, first of two independent assays); 14000 nM in the data set with MCF-7 cells (Homo sapiens, MCF7, MCF-7 cells, second of two independent assays).

In the case of `CNc1ccc(C(=O)C(C)C=C(C)C=CC(=O)NO)cc1` (centres unmarked) [N-demethylated TSA metabolite, N-demethylated TSA], the “HDAC inhibitory potency relative to TSA” value in the data set on HDAC [2] is given as “equipotent”.

As usually defined, the Cmax is the maximum level reached in the sampled fluid or tissue. Turning to `CC(/C=C/C(=O)NO)=C\[C@@H](C)C(=O)c1ccc(N(C)C)cc1` [TSA, Trichostatin A], the “Number of UV metabolites” value in data set [3] (TSA, at 20 minutes (Sanderson et al, 2004), quoted in Example 10) is recorded as 17; in data set [7] (mice, at 20 minutes (FIG. 17 and Sanderson et al, 2004)), 17. Further, the Parent drug remaining entry in [3] (TSA, at 20 minutes (Sanderson et al, 2004)) is on record as “almost no parent drug”. Also, the Cmax in [3] (plasma, 80 mg/kg i.p., mice) is 40000 ng/mL. In addition, the Half-life in [3] (plasma, 80 mg/kg i.p., mice) was 6.3 min. In addition, the Anti-tumour activity result in [4] is given as “potent anti-tumour activity”; in data set [6], “anti-tumour activity”. Besides, in data set [4], the Toxicity in vivo entry is on record as “without significant toxicity”. The “Concentrations at which HDAC is inhibited” value with HDAC [5] was “low nanomolar”. Further, the EC50 turned out to be 75 nM with MCF-7 cells (setting [13]) and 110 nM with MCF-7 cells (setting [14]). Moreover, in [7] (FIG. 17), the Metabolism in vivo entry is “rapidly metabolised in vivo”.

As for “(E,E)-4-methyl-5-{4-[4-bis-(2-chloroethylamino)phenyl]-sulfonamido}penta-2,4-dienoic acid N-hydroxyamide [Example C1-A]”, the EC50 turned out to be 590 nM in data set [1] (setting [11]), 310 nM in data set [1] (setting [12]), 3900 nM in the data set with MCF-7 cells (setting [13]) and 6800 nM in the data set on MCF-7 cells (setting [14]). Also, the Stability in vivo result in data set [8] (Balb/c mice (FIG. 14)) is on record as “stable in vivo”; in data set [7] (80 mg/kg i.p. in DMSO, mouse, HPLC-UV (FIG. 16)), “stable in vivo”. In [8] (mouse), the Detection in liver entry was “detectable in the liver at all time points”. Besides, in data set [8] (mouse, HPLC-UV), the “Time up to which compound was detectable in plasma” value was “up to 60 min”. The “Toxicity based on measurement of body weight” value in data set [9] is “no toxicity was detectable”. In addition, the “Efficacy in vivo (tumour volume vs vehicle control)” value in [9] is “Tumour volume was greater in the control than in the C1-A-treated mouse”; in data set [9] (listed as C1A), “efficacious in vivo”. Moreover, in [7] (mouse, at 60 minutes), the “Number of UV metabolites” value is 5. Also, the “Concentration at which pRb & cyclin D are inhibited and H4 hyperacetylation is induced, relative to TSA” value in data set [10] is at least 10 × [TSA].

For the compound Depudecin [reference compound], the EC50 in data set [1] (control, read-out: EC50) is over 10000 nM. The “Concentrations at which HDAC is inhibited” value in the data set on HDAC [5] is reported as “micromolar”.

Values taken from patent publication US8236985B2, “Compounds and uses thereof” (Imperial Innovations Ltd., priority 2006, dated 2012).
